In ChEMBL document CHEMBL1133291, “The discovery of non-basic atrial natriuretic peptide clearance receptor antagonists. Part 1” (Bioorg Med Chem Lett, 2000) one finds Ki and Selectivity data, which are given here for 13 compounds.

For assay [1], the target named is T1, Atrial natriuretic peptide receptor 3 (Homo sapiens, UniProt P17342).
T1 sequence (P17342 whole entry): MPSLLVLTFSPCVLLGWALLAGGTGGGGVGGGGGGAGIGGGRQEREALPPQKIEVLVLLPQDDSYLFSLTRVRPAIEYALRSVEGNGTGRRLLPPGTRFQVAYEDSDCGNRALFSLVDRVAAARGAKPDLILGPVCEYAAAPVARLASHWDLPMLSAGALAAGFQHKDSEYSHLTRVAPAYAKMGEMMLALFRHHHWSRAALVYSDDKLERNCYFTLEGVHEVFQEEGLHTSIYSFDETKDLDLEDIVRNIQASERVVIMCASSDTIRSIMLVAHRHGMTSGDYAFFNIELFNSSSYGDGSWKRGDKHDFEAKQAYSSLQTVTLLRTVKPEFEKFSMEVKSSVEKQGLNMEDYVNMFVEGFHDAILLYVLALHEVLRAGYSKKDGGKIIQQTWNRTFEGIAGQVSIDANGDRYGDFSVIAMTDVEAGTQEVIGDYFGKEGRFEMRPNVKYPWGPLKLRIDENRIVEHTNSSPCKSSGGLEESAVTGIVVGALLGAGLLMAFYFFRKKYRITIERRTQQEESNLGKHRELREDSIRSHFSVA
Put plainly: Displacement of [125I]- ANP from the Atrial Natriuretic Peptide Clearance Receptor. Format: tissue-based, Cardiac atrium. In general terms: In a radioligand displacement assay an active substance lowers the binding of a labelled ligand.

Assay [2] addresses T2, Atrial natriuretic peptide receptor 1 (Homo sapiens, UniProt P16066).
T2 sequence (P16066 whole entry): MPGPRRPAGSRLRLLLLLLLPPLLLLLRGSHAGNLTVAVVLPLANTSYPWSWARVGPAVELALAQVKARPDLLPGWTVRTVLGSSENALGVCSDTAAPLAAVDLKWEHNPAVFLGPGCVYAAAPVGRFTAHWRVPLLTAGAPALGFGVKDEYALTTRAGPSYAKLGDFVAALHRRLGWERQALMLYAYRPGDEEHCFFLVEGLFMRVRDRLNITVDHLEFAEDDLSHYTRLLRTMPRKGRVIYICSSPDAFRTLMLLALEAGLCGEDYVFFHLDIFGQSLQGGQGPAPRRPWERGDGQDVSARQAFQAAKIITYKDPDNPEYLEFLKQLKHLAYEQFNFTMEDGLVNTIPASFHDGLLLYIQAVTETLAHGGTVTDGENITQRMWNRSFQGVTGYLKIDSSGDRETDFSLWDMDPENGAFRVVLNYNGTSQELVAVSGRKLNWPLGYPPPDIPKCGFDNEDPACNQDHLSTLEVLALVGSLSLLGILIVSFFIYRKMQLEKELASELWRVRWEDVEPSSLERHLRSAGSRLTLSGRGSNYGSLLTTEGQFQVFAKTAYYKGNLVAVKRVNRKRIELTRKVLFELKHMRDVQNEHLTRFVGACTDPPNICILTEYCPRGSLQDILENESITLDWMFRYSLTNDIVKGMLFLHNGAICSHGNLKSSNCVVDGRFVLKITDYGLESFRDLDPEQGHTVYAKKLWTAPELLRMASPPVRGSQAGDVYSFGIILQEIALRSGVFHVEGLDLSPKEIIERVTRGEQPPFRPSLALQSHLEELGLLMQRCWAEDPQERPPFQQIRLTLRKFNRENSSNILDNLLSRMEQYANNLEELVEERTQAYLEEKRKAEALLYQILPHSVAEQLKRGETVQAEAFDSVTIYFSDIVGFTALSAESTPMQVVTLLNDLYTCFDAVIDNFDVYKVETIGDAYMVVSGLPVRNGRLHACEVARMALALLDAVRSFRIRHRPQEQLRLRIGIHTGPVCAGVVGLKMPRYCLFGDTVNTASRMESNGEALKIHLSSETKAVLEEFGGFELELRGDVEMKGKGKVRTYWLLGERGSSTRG
Put plainly: Displacement of [125I]- ANP from the Atrial natriuretic peptide receptor A. Format: tissue-based, Cardiac atrium.

Assay [3] can be described thus: Ratio of binding affinity for ANP-CR receptor and ANP-A receptor.

SMILES strings stand for the structures. Numbered stars: 1 amine (or outer) side, 2 acyl side, 3 side chain; on linkers, the order of the positions; unused ones are H or OH. Square brackets hold non-standard residues; d marks the D form. Peptide text beside a SMILES is read from it. * marks the point of attachment. NH(2S-methylbutyl) = CC[C@H](C)CN*; 2Naphthoyl = O=C(c1ccc2ccccc2c1)*; X1 = O=C(Cc1ccc(N[*:1])cc1)[*:2]; PhAc = O=C(Cc1ccccc1)*; X2 = CCC[C@H](C)CN* Some results are limits rather than exact numbers.

In general, Ki refers to the dissociation constant of the complex between target and ligand, obtained from inhibition or displacement. High values mean weaker binding, low ones tighter binding. In the case of `CC[C@H](C)[C@@H]1NC(=O)[C@H](C)NC(=O)CNC(=O)CNC(=O)[C@H](Cc2ccccc2)NC(=O)[C@H](N)CSSC[C@H](C(=O)O)NC(=O)CNC(=O)[C@H](CC(C)C)NC(=O)CNC(=O)[C@H](CO)NC(=O)[C@H](CCC(N)=O)NC(=O)[C@H](C)NC(=O)CNC(=O)[C@H]([C@@H](C)CC)NC(=O)[C@H](CCCN=C(N)N)NC(=O)[C@H](CC(=O)O)NC1=O`, the Ki in assay [1] and in assay [2] was 0.49 nM throughout.

In turn, `CC[C@H](C)[C@@H]1NC(=O)[C@H](CCCNC(=N)N)NC(=O)[C@H](CC(=O)O)NC(=O)[C@H]([C@@H](C)CC)NC(=O)[C@H](CCCNC(=N)N)NC(=O)CNC(=O)CNC(=O)[C@H](Cc2ccccc2)NC(=O)[C@@H](NC(=O)[C@H](CO)NC(=O)[C@H](CO)NC(=O)[C@@H](N)CCCNC(=N)N)CSSC[C@@H](C(=O)O)NC(=O)[C@H](C)NC(=O)CNC1=O` came in with a Ki in assay [1] of 1.64 nM.

In the case of `CC[C@H](C)[C@@H]1NC(=O)[C@H](CCCN=C(N)N)NC(=O)[C@H](CC(=O)O)NC(=O)[C@H]([C@@H](C)CC)NC(=O)[C@H](CCCN=C(N)N)NC(=O)CNC(=O)CNC(=O)[C@H](Cc2ccccc2)NC(=O)[C@H](NC(=O)[C@H](CO)NC(=O)[C@H](CO)NC(=O)[C@@H](N)CCCN=C(N)N)CSSC[C@H](C(=O)O)NC(=O)[C@H](C)NC(=O)CNC1=O`, in assay [3], the Selectivity is 6100. The compound also yielded a Ki in assay [2] above 10 nM.

On to `CC[C@H](C)[C@@H]1NC(=O)[C@H](CCCN=C(N)N)NC(=O)[C@H](C)NC(=O)[C@H]([C@@H](C)CC)NC(=O)[C@H](CCCN=C(N)N)NC(=O)CNC(=O)CNC(=O)[C@H](Cc2ccccc2)NC(=O)[C@H](N)CSSC[C@H](C(=O)O)NC(=O)CNC(=O)[C@H](CC(C)C)NC(=O)CNC(=O)[C@H](CO)NC(=O)[C@H](CCC(N)=O)NC(=O)[C@H](C)NC(=O)CNC1=O`, for which the Ki in assay [1] and in assay [2] was 87 nM each time.

Regarding `CC[C@H](C)CNC(=O)[C@H](C)NC(=O)[C@H](CC(=O)O)NC(=O)[C@@H](NC(=O)[C@H](C)NC(=O)Cc1ccc(NC(=O)c2ccc3ccccc3c2)cc1)[C@@H](C)CC` (2Naphthoyl-[X1]AIDA-{NH(2S-methylbutyl)}), the Ki in assay [1] and in assay [2] was 65 nM each time.

With `CC[C@H](C)CNC(=O)[C@H](CCCN=C(N)N)NC(=O)[C@H](CC(=O)O)NC(=O)[C@@H](NC(=O)[C@H](C)NC(=O)Cc1ccc(NC(=O)c2ccc3ccccc3c2)cc1)[C@@H](C)CC` (2Naphthoyl-[X1]AIDR-{NH(2S-methylbutyl)}), the Ki in assay [1] and in assay [2] was 0.3 nM in each case.

As for `CC[C@H](C)CNC(=O)[C@H](CCCN=C(N)N)NC(=O)[C@H](CC(=O)O)NC(=O)[C@H](C)NC(=O)[C@H](CCCN=C(N)N)NC(=O)Cc1ccc(NC(=O)c2ccc3ccccc3c2)cc1` (2Naphthoyl-[X1]RADR-{NH(2S-methylbutyl)}), the Ki in assay [1] and in assay [2] was 680 nM in each case.

Consider `CC[C@H](C)CNC(=O)[C@H](CCCNC(=N)N)NC(=O)[C@H](C)NC(=O)[C@@H](NC(=O)[C@H](CCCNC(=N)N)NC(=O)Cc1ccc(NC(=O)c2ccc3ccccc3c2)cc1)[C@@H](C)CC` (2Naphthoyl-[X1]RIAR-{NH(2S-methylbutyl)}), for which the Ki in assay [1] and in assay [2] was 62 nM throughout.

On to `CC[C@H](C)CNC(=O)[C@H](C)NC(=O)[C@H](CC(=O)O)NC(=O)[C@@H](NC(=O)[C@H](CCCN=C(N)N)NC(=O)Cc1ccc(NC(=O)c2ccc3ccccc3c2)cc1)[C@@H](C)CC` (2Naphthoyl-[X1]RIDA-{NH(2S-methylbutyl)}), for which the Ki in assay [1] and in assay [2] was 0.4 nM each time.

Turning to `CC[C@H](C)[C@H](NC(=O)[C@H](CCCNC(=N)N)NC(=O)Cc1ccc(NC(=O)c2ccc3ccccc3c2)cc1)C(=O)N[C@@H](CC(=O)O)C(=O)N[C@@H](CCCNC(=N)N)C(N)=O` (2Naphthoyl-[X1]RIDR-NH2), the Ki in assay [1] and in assay [2] was 2600 nM each time.

As to `CC[C@H](C)CNC(=O)[C@H](CCCN=C(N)N)NC(=O)[C@H](CC(=O)O)NC(=O)[C@@H](NC(=O)[C@H](CCCN=C(N)N)NC(=O)Cc1ccc(NC(=O)c2ccc3ccccc3c2)cc1)[C@@H](C)CC` (2Naphthoyl-[X1]RIDR-{NH(2S-methylbutyl)}), the Ki in assay [1] was 0.48 nM; in assay [2], above 10 nM. Moreover, the Selectivity in assay [3] is above 20000.

As for `CCC[C@H](C)CNC(=O)[C@H](CCCNC(=N)N)NC(=O)[C@H](CC(=O)O)NC(=O)[C@@H](NC(=O)[C@H](CCCNC(=N)N)NC(C)=O)[C@@H](C)CC` (Ac-RIDR-X2), the inhibitory constant (Ki) in assay [1] and in assay [2] was 2900 nM throughout.

For the compound `CCC[C@H](C)CNC(=O)[C@H](CCCN=C(N)N)NC(=O)[C@H](CC(=O)O)NC(=O)[C@@H](NC(=O)[C@H](CCCN=C(N)N)NC(=O)Cc1ccccc1)[C@@H](C)CC` (PhAc-RIDR-X2), the Ki in assay [1] and in assay [2] was 539 nM throughout.
